This is an account of results in ChEMBL document CHEMBL5352443, “S-acylthioalkyl ester (SATE)-based prodrugs of deoxyribose cyclic dinucleotides (dCDNs) as the STING agonist for antitumor immunotherapy” (Eur J Med Chem, 2022).

SMILES strings stand for the structures. The source made the active and inactive calls. The rule behind the calls is not given here.

The nature of data set [1]: Toxicity in BALB/c mouse implanted with mouse CT26 cells expressing high luciferase assessed as mouse survival rate at 0.5 mg/kg, IT administered intratumorally on day 1,3,5,7 and measured at 50 days. In kind it is organism-based. Conditions: in vivo, route it(Intratumoral), time 50 day.
The test system of another data set is CT26. In words: Antitumor activity against mouse CT26 cells expressing high luciferase implanted in BALB/c mouse assessed as darkening of tumor tissue at 0.5 mg/kg, IT administered intratumorally on day 1,3,5,7 and measured on day 1,9,14,24 by fluorescence imaging analysis. In kind it is functional, organism-based. To be noted: route it(Intratumoral), time 24.0 day.

Data set [2] is described as follows: Stability of the compound in 20% fetal bovine serum assessed as drug degradation at 100 uM measured at 72 hrs by HPLC analysis. It counts as ADME, cell-free, Bos taurus. To be noted: cattle.
The target of data set [3] is T1, Stimulator of interferon genes protein (Homo sapiens, UniProt Q86WV6). In words: Agonist activity at STING in PMA-treated human THP-1 reporter cells incubated for 30 mins in presence of digitonin by QUANTI-Luc assay. In kind it is cell-based.
The target in data set [4] is T1, Stimulator of interferon genes protein. In words: Agonist activity at STING in human THP-1 reporter cells incubated for 4 hrs in presence of lipofectamine 2000 by QUANTI-Luc assay. In kind it is cell-based.
Data set [5] has the same target. In words: Agonist activity at STING in human THP-1 reporter cells incubated for 24 hrs by QUANTI-Luc assay. It counts as cell-based.

T1 sequence (Q86WV6 whole entry): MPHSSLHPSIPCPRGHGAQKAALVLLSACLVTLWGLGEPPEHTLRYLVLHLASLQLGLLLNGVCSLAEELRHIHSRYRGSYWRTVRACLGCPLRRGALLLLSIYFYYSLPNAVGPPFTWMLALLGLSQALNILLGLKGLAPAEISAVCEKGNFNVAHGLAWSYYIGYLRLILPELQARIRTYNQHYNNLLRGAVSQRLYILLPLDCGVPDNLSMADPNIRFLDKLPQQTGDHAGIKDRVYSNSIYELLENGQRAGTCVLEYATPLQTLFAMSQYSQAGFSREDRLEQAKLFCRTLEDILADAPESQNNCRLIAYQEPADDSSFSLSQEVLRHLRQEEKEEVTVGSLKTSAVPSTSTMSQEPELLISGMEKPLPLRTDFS

As for `Nc1ncnc2c1ncn2[C@@H]1O[C@@H]2COP(=O)(S)O[C@@H]3[C@H](O)[C@@H](COP(=O)(S)O[C@H]2[C@H]1O)O[C@H]3n1cnc2c(N)ncnc21` (some centres not stated), in data set [1], the survival at 1200 h turned out to be 75%. The outcome in the data set on CT26 was Active.
In the case of `Nc1nc2c(ncn2[C@@H]2O[C@@H]3COP(=O)(O)O[C@H]4[C@@H](O)[C@H](n5cnc6c(N)ncnc65)O[C@@H]4COP(=O)(O)O[C@@H]2[C@@H]3O)c(=O)[nH]1`, the metabolised at 72 h, 100 µM in data set [2] (20% fetal bovine serum, read-out: Drug degradation) was 80%.
Turning to `Nc1ncnc2c1ncn2[C@H]1C[C@@H]2OP(=O)(O)OC[C@H]3O[C@@H](n4cnc5c(N)ncnc54)C[C@@H]3OP(=O)(O)OC[C@H]2O1`, the Stability result in data set [2] (serum, 72 h, 100 µM) is given as “Stable”. Further, the figures for the EC50 in data set [3], in data set [4] and in data set [5] were 317 nM, 673 nM and 41300 nM, respectively.
